What was measured:
[1] = test system: vomiting induced by morphine in ferrets; test: Vomiting induced by morphine in ferrets, oral dosing; assay type: in vivo; conditions: morphine 0.3 mg/kg subcutaneous; for A: Number of ferrets with retching/number of tested ferrets / B: Frequency of retching (mean ± SD) / C: Time period until first retching (minute; mean ± SD) / D: Duration of retching (minute; mean ± SD) / E: Number of ferrets with vomiting/number of tested ferrets / F: Frequency of vomiting (mean ± SD) / G: Time period until first vomiting (minute; mean ± SD) / H: Duration of vomiting (minute; mean ± SD): 30 minutes
Method: Male 6 or 7 ferrets (1.6 to 2.0 kg) per one group were used. Morphine was subcutaneously administered at0.3 mg/0.3 ml/kg. 2.5 hours before morphine dosing, a small amount of a feed was given to the animals. 30 minutes thereafter, predetermined doses of the compound No. 3 were orally given. To a control animal group under no fasting was orally given a predetermined volume of 0.5 % methyl cellulose solution. A predetermined volume of ondansetron was orally given to the animals under fasting. To a control animal group of ondansetron under fasting was orally given a predetermined volume of physiological saline. The frequency of vomiting was counted up to 30 minutes after morphine dosing. The compound No. 3 was suspended in 0.5 % methyl cellulose solution and was then orally dosed at a ratio of 1 ml per 1 kg body weight. An injection of ondansetron at a concentration of 0.2 w/v % was orally dosed. Additionally, 0.5 % methyl cellulose solution was orally given at a ratio of 1 ml per 1 kg body weight, while physiological saline was orally given at a ratio of 1 ml per 1 kg body weight. The data relating to the frequency of vomiting, the latency and the time period from the occurrence of vomiting to the termination thereof were statistically analyzed by the Dunnett test or t test, with reference to the difference from the control group.
(§1) The retching suppression ratio and vomiting suppression ratio were calculated by the following formula. [Frequency of retching or vomiting in control] - [Frequency of retching or vomiting in animals dosed with compound No. 3] / [Frequency of retching or vomiting in control] x 100 (%) [formula]

[2] = test system: acute and delayed vomiting induced by cisplatin in ferrets; test: Acute and delayed vomiting induced by cisplatin in ferrets, oral dosing once or twice daily; assay type: in vivo; conditions: cisplatin 5 mg/kg i.p.; for Duration (in hour; mean ± SD) / Latency (in hour; mean ± SD) / On day 0 (0-24 hours): frequency of retching and vomiting (mean ± SD) / On day 0 (0-24 hours): number of ferrets with vomiting/ number of tested ferrets / On days 1-2(24-48 hours): frequency of retching and vomiting (mean ± SD) / On days 1-2(24-48 hours): number of ferrets with vomiting/ number of tested ferrets / Total frequency of retching and vomiting (on days 0-2; 0-72 hours): twice daily
Method: Male 4 to 6 ferrets (1.2 to 2.2 kg) per one group were used. Cisplatin was intraperitoneally given at 5 mg/5ml/kg. 30 minutes prior to cisplatin administration and 24 and 48 hours after cisplatin administration, predetermined doses of the compound No. 3 were orally given in case of dosing once daily. 30 minutes prior to cisplatin administration and 12, 24, 36, 48 and 60 hours after cisplatin administration, predetermined doses of the compound No. 3 were orally given in case of dosing twice daily. 30 minutes prior to the dosing of the compound No. 3, a small amount of a feed was given to the animals in any of the cases. Similarly, a predetermined volume of 0.5 % methyl cellulose solution was similarly given orally to a control animal group under no fasting. A predetermined dose of ondansetron was orally given to the animals under fasting. To a control animal group of ondansetron, a predetermined volume of physiological saline was orally given to the animals under fasting. The frequency of vomiting was counted in number, up to 72 hours after cisplatin administration.
The compound No. 3 was suspended in 0.5 % methyl cellulose solution, for oral dosing at predetermined doses at a ratio of 1 ml per 1 kg body weight. An injection of ondansetron at 0.2 w/v % concentration was orally given at a predetermined volume. Additionally, 0.5 % methyl cellulose solution was orally given at a ratio of 1 ml per 1 kg body weight, while physiological saline was orally given at a ratio of 0.5 to 1.5 ml per 1 kg body weight. The data relating to the frequency of vomiting, the time period (latency) until first vomiting and the time period from the occurrence of vomiting to the termination thereof were statistically analyzed by the Dunnett test, with reference to the difference from the control group.
as §1, with “The acute vomiting suppression ratio, delayed vomiting” for “The retching”, “and total” for “and”

Cc1ccc(-c2c3n(c(=O)c4ncccc24)CC[C@@H](C)CN(Cc2cc(C(F)(F)F)cc(C(F)(F)F)c2)C3=O)cc1 [Cpd. No.3, (9R)-7-[3,5-bis(trifluoromethyl)benzyl]-6,7,8,9,10,11-hexahydro-9-methyl-5-(4-methylphenyl)-6,13-dioxo-13H-[1,4]diazocino[2,1-g][1,7]naphthylidine]
Acute vomiting suppression ratio ([1]; 1 mg/kg p.o.): 31 % NS | Effect on retching and vomiting (in words) ([1]; 1 mg/kg p.o.): likely to be suppressed | Pseudo-vomiting suppression ratio ([1]; 1 mg/kg p.o.): 43 % NS | A: Number of ferrets with retching/number of tested ferrets ([1]; 1 mg/kg p.o.): 4/6 | B: Frequency of retching (mean ± SD) ([1]; 1 mg/kg p.o.): 18.3 ± 7.0 | C: Time period until first retching (minute; mean ± SD) ([1]; 1 mg/kg p.o.): 12.3 ± 5.6 min | D: Duration of retching (minute; mean ± SD) ([1]; 1 mg/kg p.o.): 5.5 ± 1.9 min | E: Number of ferrets with vomiting/number of tested ferrets ([1]; 1 mg/kg p.o.): 4/6 | F: Frequency of vomiting (mean ± SD) ([1]; 1 mg/kg p.o.): 2.5 ± 1.0 | G: Time period until first vomiting (minute; mean ± SD) ([1]; 1 mg/kg p.o.): 13.3 ± 5.4 min | H: Duration of vomiting (minute; mean ± SD) ([1]; 1 mg/kg p.o.): 3.8 ± 1.9 min | Acute vomiting suppression ratio ([1]; 3 mg/kg p.o.): 86 % a | Effect on retching and vomiting (in words) ([1]; 3 mg/kg p.o.): significantly suppressed | Pseudo-vomiting suppression ratio ([1]; 3 mg/kg p.o.): 79 % b | A: Number of ferrets with retching/number of tested ferrets ([1]; 3 mg/kg p.o.): 5/6 | B: Frequency of retching (mean ± SD) ([1]; 3 mg/kg p.o.): 6.8 ± 2.6 b | C: Time period until first retching (minute; mean ± SD) ([1]; 3 mg/kg p.o.): 10.5 ± 3.9 min | D: Duration of retching (minute; mean ± SD) ([1]; 3 mg/kg p.o.): 2.7 ± 1.7 min | E: Number of ferrets with vomiting/number of tested ferrets ([1]; 3 mg/kg p.o.): 1/6 | F: Frequency of vomiting (mean ± SD) ([1]; 3 mg/kg p.o.): 0.5 ± 0.5 a | G: Time period until first vomiting (minute; mean ± SD) ([1]; 3 mg/kg p.o.): 25.8 ± 4.2 b minute | H: Duration of vomiting (minute; mean ± SD) ([1]; 3 mg/kg p.o.): 1.5 ± 1.5 min | Acute vomiting suppression ratio (0 to 24 hours after cisplatin dosing) ([2]; 0.03 mg/kg p.o. twice daily): 25 % NS | Delayed vomiting suppression ratio (24 to 72 hours after cisplatin dosing) ([2]; 0.03 mg/kg p.o. twice daily): 31 % NS | Total vomiting suppression ratio (0 to 72 hours after cisplatin dosing) ([2]; 0.03 mg/kg p.o. twice daily): 30 % NS | Duration (in hour; mean ± SD) ([2]; 0.03 mg/kg × 2 p.o.): 50.8 ± 7.3 h | Latency (in hour; mean ± SD) ([2]; 0.03 mg/kg × 2 p.o.): 13.4 ± 4.9 h | On day 0 (0-24 hours): frequency of retching and vomiting (mean ± SD) ([2]; 0.03 mg/kg × 2 p.o.): 24.8 ± 14.8 | On day 0 (0-24 hours): number of ferrets with vomiting/ number of tested ferrets ([2]; 0.03 mg/kg × 2 p.o.): 3/4 | On days 1-2(24-48 hours): frequency of retching and vomiting (mean ± SD) ([2]; 0.03 mg/kg × 2 p.o.): 245.8 ± 34.3 | On days 1-2(24-48 hours): number of ferrets with vomiting/ number of tested ferrets ([2]; 0.03 mg/kg × 2 p.o.): 4/4 | Total frequency of retching and vomiting (on days 0-2; 0-72 hours) ([2]; 0.03 mg/kg × 2 p.o.): 270.5 ± 43.7 | Acute vomiting suppression ratio (0 to 24 hours after cisplatin dosing) ([2]; 0.1 mg/kg p.o. twice daily): 21 % NS | Delayed vomiting suppression ratio (24 to 72 hours after cisplatin dosing) ([2]; 0.1 mg/kg p.o. twice daily): 37 % a | Effect on delayed vomiting induced by cisplatin (in words) ([2]; 0.1 mg/kg p.o. twice daily): significantly suppressed | Total vomiting suppression ratio (0 to 72 hours after cisplatin dosing) ([2]; 0.1 mg/kg p.o. twice daily): 36 % a | Duration (in hour; mean ± SD) ([2]; 0.1 mg/kg × 2 p.o.): 54.8 ± 6.1 h | Latency (in hour; mean ± SD) ([2]; 0.1 mg/kg × 2 p.o.): 13.3 ± 6.3 h | On day 0 (0-24 hours): frequency of retching and vomiting (mean ± SD) ([2]; 0.1 mg/kg × 2 p.o.): 26.0 ± 11.2 | On day 0 (0-24 hours): number of ferrets with vomiting/ number of tested ferrets ([2]; 0.1 mg/kg × 2 p.o.): 3/4 | On days 1-2(24-48 hours): frequency of retching and vomiting (mean ± SD) ([2]; 0.1 mg/kg × 2 p.o.): 222.0 ± 20.7 a | On days 1-2(24-48 hours): number of ferrets with vomiting/ number of tested ferrets ([2]; 0.1 mg/kg × 2 p.o.): 4/4 | Total frequency of retching and vomiting (on days 0-2; 0-72 hours) ([2]; 0.1 mg/kg × 2 p.o.): 248.0 ± 10.7 a | Acute vomiting suppression ratio (0 to 24 hours after cisplatin dosing) ([2]; 0.3 mg/kg p.o. twice daily): 100 % NS | Delayed vomiting suppression ratio (24 to 72 hours after cisplatin dosing) ([2]; 0.3 mg/kg p.o. twice daily): 41 % b | Total vomiting suppression ratio (0 to 72 hours after cisplatin dosing) ([2]; 0.3 mg/kg p.o. twice daily): 46 % b | Duration (in hour; mean ± SD) ([2]; 0.3 mg/kg × 2 p.o.): 31.1 ± 1.9 a hour | Latency (in hour; mean ± SD) ([2]; 0.3 mg/kg × 2 p.o.): 34.5 ± 3.4 b hour | On day 0 (0-24 hours): frequency of retching and vomiting (mean ± SD) ([2]; 0.3 mg/kg × 2 p.o.): 0 | On day 0 (0-24 hours): number of ferrets with vomiting/ number of tested ferrets ([2]; 0.3 mg/kg × 2 p.o.): 0/4
